Reference: patent US7816408B2, “Calcium receptor active compounds” (NPS Pharmaceuticals, Inc., priority 2002, dated 2010)

Target: T1, human calcium receptor (Homo sapiens, UniProt P41180)
T1 construct: expressed in transfected cells; host or cells: HEK293
T1 sequence (P41180 20-1078): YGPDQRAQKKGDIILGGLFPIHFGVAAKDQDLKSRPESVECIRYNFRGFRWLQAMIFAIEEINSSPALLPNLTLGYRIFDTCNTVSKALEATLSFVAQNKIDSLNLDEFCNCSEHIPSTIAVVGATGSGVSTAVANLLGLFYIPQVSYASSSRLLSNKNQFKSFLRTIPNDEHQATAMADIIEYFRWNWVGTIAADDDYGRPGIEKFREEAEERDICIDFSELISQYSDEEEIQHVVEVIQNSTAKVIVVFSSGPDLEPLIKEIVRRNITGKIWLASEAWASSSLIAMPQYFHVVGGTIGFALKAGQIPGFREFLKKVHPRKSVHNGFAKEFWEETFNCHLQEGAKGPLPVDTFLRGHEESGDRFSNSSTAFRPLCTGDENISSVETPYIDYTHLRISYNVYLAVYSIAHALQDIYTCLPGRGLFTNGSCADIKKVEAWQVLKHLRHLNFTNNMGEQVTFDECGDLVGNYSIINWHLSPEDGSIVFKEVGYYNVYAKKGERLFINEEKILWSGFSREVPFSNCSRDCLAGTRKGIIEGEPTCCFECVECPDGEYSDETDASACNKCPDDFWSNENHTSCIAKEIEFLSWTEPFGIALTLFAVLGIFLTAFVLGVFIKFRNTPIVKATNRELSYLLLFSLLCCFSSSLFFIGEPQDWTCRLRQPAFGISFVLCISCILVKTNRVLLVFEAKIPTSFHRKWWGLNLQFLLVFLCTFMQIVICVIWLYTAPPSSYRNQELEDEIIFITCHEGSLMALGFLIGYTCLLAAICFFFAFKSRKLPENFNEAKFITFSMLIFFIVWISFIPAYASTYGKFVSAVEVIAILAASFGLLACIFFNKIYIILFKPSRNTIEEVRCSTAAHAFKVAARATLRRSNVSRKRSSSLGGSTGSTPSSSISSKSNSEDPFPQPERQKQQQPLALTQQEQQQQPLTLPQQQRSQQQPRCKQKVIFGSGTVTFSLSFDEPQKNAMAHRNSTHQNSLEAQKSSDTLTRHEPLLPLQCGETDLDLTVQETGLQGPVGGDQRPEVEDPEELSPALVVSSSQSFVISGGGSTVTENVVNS
Test: Activity on calcium receptors: fluo-3 fluorescence in HEK293 cells transfected with human calcium receptor gene
Assay type: cell-based
Settings: HEK293 cells transfected with plasmid pHuPCaR4.0 (human calcium receptor gene), loaded with fluo-3; 1 mM CaCl2, 1 mM MgCl2
Experimental: The activities of the compounds of the present invention on calcium receptors were measured. The measurement was performed in accordance with the method described in Example 4 of Nemeth et al., PCT/US95/13704 (International Publication No. WO96/12697). In brief, HEK293 cells were transfected with a plasmid pHuPCaR4.0 containing a human calcium receptor gene and loaded with fluo-3. The loading was carried out by incubating the cells at 37° C. for 1 hour in Dulbecco's modified Eagle's medium which contained about 5 μM of fluo-3/AM and had been buffered with 20 mM HEPES. Next, the cells were rinsed with Hank's balanced salt solution which contained 1 mM CaCl2 and 1 mM MgCl2 and had been buffered with 20 mM HEPES. Then each test compound was added to the cells and the fluorescence was measured with the use of an excitation wavelength of 485 nm and an emission wavelength of 540 nm.

SMILES | EC50
CCCCCCOc1cccc(C(C)NCCSc2cc(Cl)ccc2Cl)c1 (racemic) [Compound K-2255, (±)-N-(1-(3-n-hexyloxyphenyl)ethyl)-2-(2′,5′-dichlorophenylthio)ethylamine] | 9600 nM
CC(NCCSc1cc(Cl)ccc1Cl)c1cccc(OCc2ccc(Cl)cc2)c1 (racemic) [Compound K-2258, (±)-N-(1-(3-(4-chlorobenzyloxy)phenyl)ethyl)-2-(2′,5′-dichlorophenylthio)ethylamine] | 380 nM
COc1cccc([C@@H](C)NCCCCCSc2ccc(C(F)(F)F)cc2)c1 [Compound K-2057] | 410 nM
COc1cccc(C(C)NCCCCCCSc2ccc(C(F)(F)F)cc2)c1 (centres unmarked) [Compound K-2058] | 390 nM
COc1cccc(C(C)NCCCCCCCSc2ccc(C(F)(F)F)cc2)c1 (centres unmarked) [Compound K-2059] | 270 nM
COc1cccc(C(C)NCCCSc2cccc(Cl)c2)c1 (centres unmarked) [Compound K-2061] | 150 nM
COc1cccc([C@@H](C)NCCSc2cc(Cl)ccc2Cl)c1 [Compound K-2066] | 260 nM
CC(NCCCCCSc1ccccc1Br)c1cccc2ccccc12 (centres unmarked) [Compound K-2075] | 140 nM
C[C@@H](NCCCCCSc1ccc(C(F)(F)F)cc1)c1cccc2ccccc12 [Compound K-2076, N-[(1R)-1-(1-naphthyl)ethyl]-N-(5-{[4-(trifluoromethyl)phenyl]thio}pentyl)amine] | 6200 nM
COc1cccc(C(C)NCCCSc2ccc(Cl)c(Cl)c2)c1 (centres unmarked) [Compound K-2078] | 170 nM
COc1cccc(C(C)NCCCCSc2ccc(Cl)c(Cl)c2)c1 (centres unmarked) [Compound K-2079] | 200 nM
COc1cccc(C(C)NCCCCCSc2ccc(Cl)c(Cl)c2)c1 (centres unmarked) [Compound K-2080] | 770 nM
COc1cccc(C(C)NCCCCCCCSc2ccc(Cl)c(Cl)c2)c1 (centres unmarked) [Compound K-2082] | 2810 nM
COc1cccc(C(C)NCCCSc2c(Cl)cccc2Cl)c1 (centres unmarked) [Compound K-2084] | 120 nM
COc1cccc(C(C)NCCCCSc2c(Cl)cccc2Cl)c1 (centres unmarked) [Compound K-2085] | 130 nM
C[C@@H](NCCSc1cc(Cl)ccc1Cl)c1cccc2ccccc12 [Compound K-2117, (R)-N-[1-(1′-naphthyl)ethyl]-2-(2′,5′-dichlorophenylthio)ethylamine] | 43 nM
CC(NCCC(=O)N(Cc1ccccc1)Cc1ccccc1)c1cccc2ccccc12 (centres unmarked) [Compound K-2177] | 75 nM
C[C@@H](NCCC(=O)N(Cc1ccc(Cl)cc1)Cc1ccc(Cl)cc1)c1cccc2ccccc12 [Compound K-2243, N1,N1-di(4-chlorobenzyl)-3-{[(1R)-1-(1-naphthyl)ethyl]amino}propanamide] | 92 nM
C[C@@H](NCCCCSc1ccc(C(F)(F)F)cc1)c1cccc2ccccc12 [Compound K-2246, N-[(1R)-1-(1-naphthyl)ethyl]-N-(4-{[4-(trifluoromethyl)phenyl]thio}butyl)amine] | 120 nM
C[C@@H](NCCC(=O)N(Cc1ccccc1)Cc1ccc2ccccc2c1)c1cccc2ccccc12 [Compound K-2248] | 78 nM
CC(NCCC(=O)N(Cc1ccccc1)Cc1ccccc1Cl)c1cccc2ccccc12 (centres unmarked) [Compound K-2249] | 82 nM

SMILES | EC50
CC(NCCC(=O)N(Cc1ccccc1)Cc1ccc(Cl)cc1Cl)c1cccc2ccccc12 (centres unmarked) [Compound K-2251] | 51 nM
C[C@@H](NCCC(=O)N(Cc1ccccc1)Cc1cccc(Cl)c1)c1cccc2ccccc12 [Compound K-2252] | 18 nM
CC(NCCC(=O)N(Cc1cccc(Cl)c1)Cc1cccc(Cl)c1)c1cccc2ccccc12 (centres unmarked) [Compound K-2253] | 190 nM
CC(NCCC(=O)N(Cc1ccccc1Cl)Cc1ccccc1Cl)c1cccc2ccccc12 (centres unmarked) [Compound K-2254] | 88 nM
CC(NCCC(=O)N(Cc1ccc(F)cc1)Cc1ccc(F)cc1)c1cccc2ccccc12 (centres unmarked) [Compound K-2256] | 180 nM
C[C@@H](NCCC(=O)N(Cc1ccc(OC(F)(F)F)cc1)Cc1ccc(OC(F)(F)F)cc1)c1cccc2ccccc12 [Compound K-2257, N1,N1-di[4-(trifluoromethoxy)benzyl]-3-{[(1R)-1-(1-naphthyl)ethyl]amino}propanamide] | 39 nM
C[C@@H](NCCC(=O)N(Cc1ccc(C(F)(F)F)cc1)Cc1ccc(C(F)(F)F)cc1)c1cccc2ccccc12 [Compound K-2259, N1,N1-di[4-(trifluoromethyl)benzyl]-3-{[(1R)-1-(1-naphthyl)ethyl]amino}propanamide] | 2.4 nM
CC(NCCC(=O)N(Cc1ccc(Cl)cc1)Cc1cccc(Cl)c1)c1cccc2ccccc12 (centres unmarked) [Compound K-2261] | 26 nM
CC(NCCSc1cccc(C(F)(F)F)c1)c1cccc2ccccc12 (centres unmarked) [Compound K-2275] | 270 nM
CC(NCCSc1cc(Cl)c(Cl)cc1Cl)c1cccc2ccccc12 (centres unmarked) [Compound K-2295] | 1360 nM
COc1ccc(CN(Cc2ccc(O)cc2)C(=O)CCNC(C)c2cccc3ccccc23)cc1 (centres unmarked) [Compound K-2312] | 80 nM
COc1ccc(SCCCCN[C@H](C)c2cccc3ccccc23)cc1 [Compound K-2314] | 290 nM
Cc1ccc(C)c(SCCCCCCCCCCCCNC(C)c2cccc3ccccc23)c1 (centres unmarked) [Compound S-16] | 110 nM
Cc1ccc(SCCCCNC(C)c2cccc3ccccc23)cc1C (centres unmarked) [Compound S-52] | 160 nM
Cc1cc(C)cc(SCCNC(C)c2cccc3ccccc23)c1 (centres unmarked) [Compound S-64] | 98 nM
Cc1cc(C)cc(SCCCCCCCN[C@H](C)c2cccc3ccccc23)c1 [Compound S-69] | 310 nM
CC(NCCCCSc1ccc(Br)cc1)c1cccc2ccccc12 (centres unmarked) [Compound S-80] | 100 nM
C[C@@H](NCCCCCCCSc1c(F)c(F)cc(F)c1F)c1cccc2ccccc12 [Compound S-165] | 150 nM
CC(NCCCCCCCSc1c(Cl)c(Cl)nc(Cl)c1Cl)c1cccc2ccccc12 (centres unmarked) [Compound S-193] | 66 nM
C[C@@H](NCCCCCCCCCCCCSc1c(F)c(F)c(C(F)(F)F)c(F)c1F)c1cccc2ccccc12 [Compound S-201] | 180 nM
CC(C)c1ccccc1SCCNC(C)c1cccc2ccccc12 (centres unmarked) [Compound S-202] | 150 nM

System: normal male SD rats
Test: Plasma Ca^2+ level of rats after single oral administration
Assay type: in vivo
Settings: rat, mean of six animals, 1 hr after single oral dose 30 μmol/kg; vehicle 10% cyclodextrin (** 1% sodium-CMC)
Experimental: The compound of the present invention was administered to rats so as to examine the effects of the compound on the plasma calcium ion level and serum PTH level. The test was performed by orally administering single dose of the compound of the invention or a control compound to normal male SD rats with six animals in each group.
To the group 1 was administered as a control a 10% cyclodextrin aqueous solution in a dose of 2.5 ml/kg. To the group 2 was administered as a reference (R)-N-(3-(2-chlorophenyl)propyl)-1-(3-methoxyphenyl)ethylamine (KRN568) dissolved in a 10% cyclodextrin aqueous solution in a dose of 30 μmol/kg. To the group 3 was administered the compound of the present invention dissolved in a 10% cyclodextrin aqueous solution in a dose of 30 μmol/kg, provided that 1% sodium-CMC aqueous solution was used in place of 10% cyclodextrin aqueous solution for the compounds marked with ** in Table 2.
Blood of each rat was collected from the tail tip before the administration and 30 minutes and 1, 2, 4, 8 and 24 hours thereafter (or at the time indicated in Table 2), and the plasma Ca^2+ level and serum PTH level were measured. The data of the serum PTH level were statistically processed by the multiple comparison analysis in accordance with Steel's calibration by using the group 1 as the control.

SMILES | Plasma Ca^2+ (mmol/l) 1 hr
CCCCCCOc1cccc(C(C)NCCSc2cc(Cl)ccc2Cl)c1 (racemic) [Compound K-2255, (±)-N-(1-(3-n-hexyloxyphenyl)ethyl)-2-(2′,5′-dichlorophenylthio)ethylamine] | 1.328 mmol/L
CC(NCCSc1cc(Cl)ccc1Cl)c1cccc(OCc2ccc(Cl)cc2)c1 (racemic) [Compound K-2258, (±)-N-(1-(3-(4-chlorobenzyloxy)phenyl)ethyl)-2-(2′,5′-dichlorophenylthio)ethylamine] | 1.317 mmol/L

Same assay, conditions: rat, mean of six animals, 2 hr after single oral dose 30 μmol/kg; vehicle 10% cyclodextrin (** 1% sodium-CMC)

SMILES | Plasma Ca^2+ (mmol/l) 2 hr
CCCCCCOc1cccc(C(C)NCCSc2cc(Cl)ccc2Cl)c1 (racemic) [Compound K-2255, (±)-N-(1-(3-n-hexyloxyphenyl)ethyl)-2-(2′,5′-dichlorophenylthio)ethylamine] | 1.212 mmol/L
CC(NCCSc1cc(Cl)ccc1Cl)c1cccc(OCc2ccc(Cl)cc2)c1 (racemic) [Compound K-2258, (±)-N-(1-(3-(4-chlorobenzyloxy)phenyl)ethyl)-2-(2′,5′-dichlorophenylthio)ethylamine] | 1.227 mmol/L

Same assay, conditions: rat, mean of six animals, 4 hr after single oral dose 30 μmol/kg; vehicle 10% cyclodextrin (** 1% sodium-CMC)

SMILES | Plasma Ca^2+ (mmol/l) 4 hr
CCCCCCOc1cccc(C(C)NCCSc2cc(Cl)ccc2Cl)c1 (racemic) [Compound K-2255, (±)-N-(1-(3-n-hexyloxyphenyl)ethyl)-2-(2′,5′-dichlorophenylthio)ethylamine] | 1.177 mmol/L
CC(NCCSc1cc(Cl)ccc1Cl)c1cccc(OCc2ccc(Cl)cc2)c1 (racemic) [Compound K-2258, (±)-N-(1-(3-(4-chlorobenzyloxy)phenyl)ethyl)-2-(2′,5′-dichlorophenylthio)ethylamine] | 1.133 mmol/L

Same assay, conditions: rat, mean of six animals, 8 hr after single oral dose 30 μmol/kg; vehicle 10% cyclodextrin (** 1% sodium-CMC)

SMILES | Plasma Ca^2+ (mmol/l) 8 hr
CCCCCCOc1cccc(C(C)NCCSc2cc(Cl)ccc2Cl)c1 (racemic) [Compound K-2255, (±)-N-(1-(3-n-hexyloxyphenyl)ethyl)-2-(2′,5′-dichlorophenylthio)ethylamine] | 1.232 mmol/L
CC(NCCSc1cc(Cl)ccc1Cl)c1cccc(OCc2ccc(Cl)cc2)c1 (racemic) [Compound K-2258, (±)-N-(1-(3-(4-chlorobenzyloxy)phenyl)ethyl)-2-(2′,5′-dichlorophenylthio)ethylamine] | 1.207 mmol/L
